According to patent publication US5547976A, “Further indole derivatives with antiviral activity” (Burroughs Wellcome Co., priority 1992, dated 1996):

How the values were obtained:
[1] = tested on: Human cytomegalovirus (HCMV), CMV strain AD 169; assay: CMV assay (plaque reduction assay, MRC5 cells); format: cell-based; details: Human betaherpesvirus 5, HCMV strain AD 169
Description: Human cytomegalovirus (HCMV) was assayed in monolayers of either MRC5 cells (human embryonic lung) in multiwell trays. The strandard CMV strain AD 169 was used. Activity of compounds is determined in the plaque reduction assay, in which a cell monolayer is infected with a suspension of HCMV, and then overlaid with nutrient […] in the form of a gel to ensure that there is no spread of virus throughout the culture. A range of concentrations of compound of known molarity was incorporated in the nutrient agarose overlay. Plaque numbers at each concentration of drug are expressed as percentage of the control and a dose-response curve is drawn.

[2] = Cell toxicity (cell growth inhibition assay, MTT uptake); format: cell-based; details: monkey, 50% inhibition of cell viability at 96 hours, Vero cells, read-out: Cytoxicity CClD50
Description: Cell toxicity is assessed in cell growth inhibition assay. Subconfluent cultures of Vero cells grown on 96-well microtiter dishes are exposed to different dilutions of drug, and cell viability determined daily on replicate cultures using uptake of a tetrazolium dye (MTT). The concentration required for 50% inhibition of cell viability at 96 hours is termed CCID50.

| SMILES | IC50 [1] | CC50 at 96 h [2] |
| --- | --- | --- |
| O=C1NC(=O)c2c1c1c3cc(Cl)ccc3[nH]c1c1[nH]c3ccc(Cl)cc3c21 [12,13-Dihydro-3,9-dichloro-5H-indolo[2,3-a]pyrrolo[3,4-c]carbazole-5,7(6H)-dione] | 0.16 µM | > 125 µM |
| O=C1c2c(c3c4ccccc4[nH]c3c3[nH]c4ccccc4c23)C(=O)N1Cc1cc(C(F)(F)F)cc(C(F)(F)F)c1 [12,13-Dihydro-6-(3,5-di-trifluoromethylphenylmethyl)-5H-indolo [2,3a]pyrrolo[3,4c]carbazole-5,7(6H)-dione] | 5.7 µM | > 125 µM |
| O=C1c2c(c3c4ccccc4[nH]c3c3[nH]c4ccccc4c23)C(=O)N1Cc1cccc(C(F)(F)F)c1 [12,13-Dihydro-6-(3-trifluoromethylphenylmethyl)-5H-indolo[2,3a]pyrrolo[3,4c]-carbazole-5,7-(6H)-dione] | 1.2 µM | > 500 µM |
